Peptide text beside a SMILES is read from it. * marks the point of attachment. X3 = C[C@@H]1NC(=O)[C@H](CCC(N)=O)NC(=O)[C@H](CC(=O)O)NC(=O)[C@@H](N)CSCc2cc3cc(c2)CSC[C@@H](C(=O)*)NC(=O)[C@H](CSC3)NC1=O; X1 = C[C@@H]1NC(=O)[C@H](CC(=O)O)NC(=O)[C@@H](N)CSCc2cc3cc(c2)CSC[C@@H](C(=O)*)NC(=O)[C@H](CSC3)NC(=O)[C@H](CO)NC1=O; X2 = C[C@@H]1NC(=O)[C@H](C)NC(=O)[C@H](CC(=O)O)NC(=O)[C@@H](N)CSCc2cc3cc(c2)CSC[C@@H](C(=O)*)NC(=O)[C@H](CSC3)NC1=O

A short description of series [1]: In vitro peptide stability in human serum. The series is classed as in vitro ADME. The note with it: 25% male human serum diluted in RPMI medium, 150 μM peptide, 37 °C, serum pre-equilibrated 15 min, methanol precipitation, RP-HPLC 210 nm peak area relative to 0 h, LC-MS for products. The procedure: In vitro peptide stability in human serum[50]
Male human serum (H-4522) was obtained from Sigma Aldrich (Missouri, USA). […] The initial time is recorded as peptides were added. The mixture was incubated at 37 °C and an aliquot of 40 μL was removed at different time intervals. […] The supernatant was analyzed in analytical RP-HPLC to calculate the amount of tested peptides, and in LCMS to analyze degradation products. The eluted peptides were detected by absorbance at 210 nm and quantified by their peak areas relative to the initial peak areas (0 h).

The next series in a line: circular dichroism. The note with it: PBS; pH 7.4; 25 °C; 5-30 uM.
Series [2] is described as follows: CD spectroscopy: percent helicity and ellipticity ratio 222/208 nm. The series is classed as physicochemical. The following applies: for % helicity: 5-30 μM peptide, three scans averaged, [θ]222/[θ]max. As to the method: Circular dichroism (CD) experiments
Concentrations of the stock solution were determined by […] absorption of Trp or 275 nm absorption of Tyr (and TMB, if present in peptides). Each sample was dissolved in 1x PBS (pH 7.4), 10% TFE/PBS or 20% TFE/PBS with the final concentration between 5 to 30 μM. CD spectra were acquired using circular dichroism spectrometer (Chirascan) equipped with a temperature controller using 1 mm cell at a scan speed of 0.5 nm/sec at indicated temperature. Each sample was scanned three times and the averaged spectrum was smoothed.
Calculation of percent helicity
For simplicity, ‘helicity’ or ‘helical’ in the following text all refers to α-type. For each peptide, mean residue ellipticities ([θ]/(c*n), c = concentration of the peptide, n = number of amino acids in the peptide) were used to calculate % helicity, which is an empirical indicator of peptide helicity. […] (n = number of amino acids in the peptide, T = 25.0 °C).

The target in series [3] is T1, cyclin E (Homo sapiens, UniProt P24864).
T1 construct: purchased Sino Biological
T1 sequence (P24864 whole entry): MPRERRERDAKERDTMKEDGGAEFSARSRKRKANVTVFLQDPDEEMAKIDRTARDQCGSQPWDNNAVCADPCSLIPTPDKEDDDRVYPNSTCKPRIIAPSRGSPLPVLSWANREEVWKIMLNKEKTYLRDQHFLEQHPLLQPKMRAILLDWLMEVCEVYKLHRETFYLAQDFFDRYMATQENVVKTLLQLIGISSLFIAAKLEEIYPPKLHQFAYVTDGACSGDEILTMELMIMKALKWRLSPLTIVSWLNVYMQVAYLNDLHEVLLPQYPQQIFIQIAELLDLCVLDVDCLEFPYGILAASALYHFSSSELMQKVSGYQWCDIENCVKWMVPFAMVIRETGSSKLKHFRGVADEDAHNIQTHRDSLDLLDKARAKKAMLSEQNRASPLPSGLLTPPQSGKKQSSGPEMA
Kind of series: Direct FP assay to measure Kd of fluorescent peptides. Format: binding. The following applies: FITC-labelled peptide 20 nM final, cyclin E up to 2.4 μM final, PBS, 3 h, n=1 independent experiment in duplicate wells; not saturated, estimate value; read-out: Kd, fluorescence polarization. The procedure: Direct FP assay to measure Kd of fluorescent peptides
Polarized fluorescence intensities were measured on Synergy H4 plate reader with excitation and emission wavelengths of 485 and 535 nm with 20 nm band widths, respectively. The optics position is Top 510 nm with Gain set as 100. Read Speed is normal and read height is 7 mm. Cyclin proteins were bought from Sino Biological and after reconstitution it should be used immediately. […] To each well, 10 μL 40 nM of fluorescent peptides in PBS was added. Various concentrations of cyclin E (from Sino Biological, Inc.) were prepared (0.16–4.8 μM) and 10 μL were added to each well. The plate was shaken in the dark for 3 h. Wells containing only the peptide and PBS buffer were used as a control. Each mixture was prepared in duplicates.

For series [4], the target named is T1, cyclin E. Kind of series: Trp fluorescence quenching assay. The series is classed as binding. The note with it: 0.8 μM cyclin E in PBS pH 7.4, 25 °C, ex 295 nm, em 338 nm; n = 2 independent experiments, ± S.D. As to the method:
Trp fluorescence quenching assay
Fluorescence quenching of the single tryptophan in cyclin E was measured by using a Cary Eclipse (Varian) equipped with a front-face fluorescence accessory at 25 °C, by using 10-nm excitation and 10 nm emission bandwidths. The excitation wavelength was 295 nm and the emission spectra were measured between 315 and 395 nm. Titrations were performed in a 0.7-ml quartz fluorescence cuvette containing 0.5 mL 0.8 μM protein in PBS buffer, pH 7.4, and by the successive addition of 0.5–1 μL of compound stock solutions. After each addition, the cuvette was shaken to enable fast mixture, and there were 10 mins interval between two additions to ensure equilibrium of the mixture. The measurements were repeated at least three times at each concentration. Fluorescence intensities at 338 nm at increasing concentrations of the quencher were collected. Dissociation equilibrium constant (Kd) values were determined by fitting data to the equation below[42],[43].

[5] abbreviates: CD in PBS buffer (pH 7.4, 10 mM), 25.0 °C, 1 mm cell.

Consider `CC[C@H](C)[C@H](NC(=O)[C@H](CCC(=O)O)NC(=O)[C@H](C)NC(=O)[C@H](CC(C)C)NC(=O)[C@H](CCC(N)=O)NC(=O)[C@@H]1CSCc2cc3cc(c2)CSC[C@H](N)C(=O)N[C@@H](CC(=O)O)C(=O)N[C@@H](CCC(N)=O)C(=O)N[C@@H](C(C)C)C(=O)N[C@@H](CSC3)C(=O)N1)C(=O)N[C@@H](Cc1ccc(O)cc1)C(N)=O` [1B], for which the half-life at 150 μM in series [1] was 5.1 h. The compound also yielded a helicity in the series “circular dichroism” of 17%. Moreover, the “ellipticity ratio 222/208 nm” value was found to be 0.86 in series [2] (CD in 10% TFE/PBS, 25 °C) and 0.48 in series [2] (CD in PBS, 25 °C). Further, the “% helicity” value came out at 43% in series [2] (CD in 10% TFE/PBS, 25 °C) and 17% in series [2] (setting [5]).
`CC(C)C[C@H](NC(=O)[C@H](C)NC(=O)[C@H](CCCNC(=N)N)NC(=O)[C@H](CC(C)C)NC(=O)[C@H](CC(C)C)NC(=O)[C@@H]1CSCc2cc3cc(c2)CSC[C@H](N)C(=O)N[C@@H](CC(=O)O)C(=O)N[C@@H](CCC(N)=O)C(=O)N[C@@H](C)C(=O)N[C@@H](CSC3)C(=O)N1)C(=O)N[C@@H](CC(=O)O)C(=O)N[C@@H](CCC(N)=O)C(=O)N[C@@H](Cc1ccc(O)cc1)C(N)=O` [2B] (X3-LLRALDQY-NH2; N-terminus and C-terminus assumed): the half-life at 150 μM in series [1] is 2.9 h. The compound further showed a helicity in the series “circular dichroism” of 25%. For the same compound, the “ellipticity ratio 222/208 nm” value in series [2] (CD in 10% TFE/PBS, 25 °C) stood at 1; in series [2] (CD in PBS, 25 °C), 0.91. Further, the “% helicity” value came out at 42% in series [2] (CD in 10% TFE/PBS, 25 °C) and 25% in series [2] (setting [5]).
On to `CC[C@H](C)[C@H](NC(=O)[C@@H]1CSCc2cc3cc(c2)CSC[C@H](N)C(=O)N[C@@H](CC(=O)O)C(=O)N[C@@H](C)C(=O)N[C@@H](CO)C(=O)N[C@@H](CSC3)C(=O)N1)C(=O)N[C@@H](CCCNC(=N)N)C(=O)N[C@@H](CCC(=O)O)C(=O)N[C@H](C(=O)N[C@@H](CO)C(=O)N[C@@H](CC(C)C)C(=O)N[C@@H](CC(C)C)C(=O)N[C@@H](CCCCN)C(=O)N[C@@H](CCC(=O)O)C(=O)N[C@@H](Cc1ccc(O)cc1)C(N)=O)[C@@H](C)CC` [3B] (X1-IREISLLKEY-NH2; N-terminus and C-terminus assumed), for which, in series [1], the half-life at 150 μM was 3.5 h. The compound also yielded a helicity in the series “circular dichroism” of 17%. Further, the “ellipticity ratio 222/208 nm” value in series [2] (CD in 10% TFE/PBS, 25 °C) came out at 0.84; in series [2] (CD in PBS, 25 °C), 0.5. In addition, the “% helicity” value in series [2] (CD in 10% TFE/PBS, 25 °C) is listed as 34%; in series [2] (setting [5]), 17%.
`CC[C@H](C)[C@H](NC(=O)[C@@H]1CSCc2cc3cc(c2)CSC[C@H](NC(=O)[C@H](CO)NC(=O)[C@H](C)NC(=O)[C@H](CC(=O)O)NC(=O)[C@@H](NC(=O)CCNC(=O)CCNC(=O)CCNC(=S)Nc2ccc4c(c2)C(=O)OC42c4ccc(O)cc4Oc4cc(O)ccc42)CSC3)C(=O)N1)C(=O)N[C@@H](CCCNC(=N)N)C(=O)N[C@@H](CCC(=O)O)C(=O)N[C@H](C(=O)N[C@@H](CO)C(=O)N[C@@H](CC(C)C)C(=O)N[C@@H](CC(C)C)C(=O)N[C@@H](CCCCN)C(=O)N[C@@H](CCC(=O)O)C(=O)N[C@@H](Cc1ccc(O)cc1)C(N)=O)[C@@H](C)CC` [3Bf]: the Kd on cyclin E [3] is 4.6 ± 2.4 µM.
`CC[C@H](C)[C@H](NC(=O)[C@H](CC(N)=O)NC(=O)[C@H](CCCCN)NC(=O)[C@@H]1CSCc2cc3cc(c2)CSC[C@H](N)C(=O)N[C@@H](CC(=O)O)C(=O)N[C@@H](C)C(=O)N[C@@H](C)C(=O)N[C@@H](CSC3)C(=O)N1)C(=O)N[C@@H](C)C(=O)N[C@@H](CO)C(=O)N[C@@H](CC(C)C)C(=O)N[C@@H](CC(C)C)C(=O)N[C@@H](CCCNC(=N)N)C(=O)N[C@H](C(=O)N[C@@H](CCC(N)=O)C(=O)N[C@@H](C)C(=O)N[C@@H](Cc1c[nH]cn1)C(=O)N[C@H](C(=O)N[C@@H](CCCNC(=N)N)C(=O)N[C@@H](CCCCN)C(=O)N[C@@H](CCCCN)C(=O)N[C@@H](CCSC)C(=O)N[C@H](C(=O)N[C@@H](Cc1ccc(O)cc1)C(N)=O)C(C)C)[C@@H](C)CC)C(C)C` [4B] (X2-KNIASLLRVQAHIRKKMVY-NH2; N-terminus and C-terminus assumed) showed a half-life in series [1] of 1.1 h. For the same compound, the “ellipticity ratio 222/208 nm” value in series [2] (CD in 10% TFE/PBS, 25 °C) is listed as 1; in series [2] (CD in PBS, 25 °C) it was 0.64. Further, the “% helicity” value is reported as 45% in series [2] (CD in 10% TFE/PBS, 25 °C) and 22% in series [2] (setting [5]).
Taken in the same sequence, the figures for `CC[C@H](C)[C@H](NC(=O)[C@H](CC(N)=O)NC(=O)[C@H](CCCCN)NC(=O)[C@H](CSC)NC(=O)[C@H](CSC)NC(=O)[C@H](C)NC(=O)[C@H](C)NC(=O)[C@H](CC(=O)O)NC(=O)[C@@H](N)CSC)C(=O)N[C@@H](C)C(=O)N[C@@H](CO)C(=O)N[C@@H](CC(C)C)C(=O)N[C@@H](CC(C)C)C(=O)N[C@@H](CCCNC(=N)N)C(=O)N[C@H](C(=O)N[C@@H](CCC(N)=O)C(=O)N[C@@H](C)C(=O)N[C@@H](Cc1c[nH]cn1)C(=O)N[C@H](C(=O)N[C@@H](CCCNC(=N)N)C(=O)N[C@@H](CCCCN)C(=O)N[C@@H](CCCCN)C(=O)N[C@@H](CCSC)C(=O)N[C@H](C(=O)N[C@@H](Cc1ccc(O)cc1)C(N)=O)C(C)C)[C@@H](C)CC)C(C)C` [4m] (H-C(Me)DAAC(Me)C(Me)KNIASLLRVQAHIRKKMVY-NH2; N-terminus and C-terminus assumed) were less than 1 h, 0.73, 0.29, 35% and 11%.
At cyclin E [4], Ac-ASTAIREISLLKEY-NH2 [3l] displayed a Kd of 8.6 ± 2.8 µM. For the same compound, the helicity in “circular dichroism” stood at 11%. Further, the “ellipticity ratio 222/208 nm” value is reported as 0.34 in series [2] (CD in 10% TFE/PBS, 25 °C) and 0.18 in series [2] (CD in PBS, 25 °C). In addition, the “% helicity” value in series [2] (CD in 10% TFE/PBS, 25 °C) is on record as 20%; in series [2] (setting [5]), 11%.
Compound Ac-KNIASLLRVQAHIRKKMVY-NH2 [4l] showed a half-life in series [1] of less than 1 h. Also, the helicity in the series “circular dichroism” turned out to be 14%. Moreover, the “ellipticity ratio 222/208 nm” value in series [2] (CD in 10% TFE/PBS, 25 °C) is listed as 0.69; in series [2] (CD in PBS, 25 °C), 0.27. For the same compound, the “% helicity” value in series [2] (CD in 10% TFE/PBS, 25 °C) is on record as 35%; in series [2] (setting [5]) it was 14%.

The values above are taken from publication PMC11101637, “Bioinformatics leading to conveniently accessible, helix enforcing, bicyclic ASX motif mimics (BAMMs)” (Nature Communications, 2024).
